From US12533426B2, “Ultrafine nanoparticles comprising a functionalized polyorganosiloxane matrix and including metal complexes; method for obtaining same and uses thereof in medical imaging and/or therapy” (NANOH, priority 2010, dated 2026)

Assay: Relaxometry of the particles (Bruker Minispec MQ60 NMR analyser, 1.4 T)
Assay type: physicochemical
Conditions: at 50 MHz; gadolinium quantities measured by ICP
Procedure: The relaxivity r1 considered here is a relaxivity per M^n+ ion (for example gadolinium). r1 is found from the following formula: 1/T1=[1/T1]water+r1[M^n+] […]
Moreover, the relaxivity of the particles from Example 15 was measured by relaxometry, the actual quantities of gadolinium being measured by ICP, on a Varian 710-ES instrument.

For `O=C([O-])CN1CCN(CC(=O)[O-])CCN(CC(=O)[O-])CCN(CC(=O)[O-])CC1.[Gd+3]` [Gd-DOTA], the “relaxivity r1 (of the gadolinium species)” value was 3.8 s^−1 mM^−1 (of gadolinium)^−1.s^−1.
